Reference: patent US20040167203A1, “Absorption enhancing agents” (priority 2003, published 2004)
Read-outs that look alike come from different tables or passages of the source.

How the values were obtained:
Caco-2 cell line [1] = assay type: in vitro ADME, human
Source text: (§1) The Caco-2 cell line is a well-recognized in vitro screening model, which both structurally and functionally represents the small intestinal epithelium. Caco-2 cells are derived from human colon carcinoma cells and differentiate in culture to form intestinal epithelia similar to that found in the small intestine. More specifically, Caco-2 cells form a brush border with normal enzymes, form tight junctions between cells, and acquire the barrier properties of an enterocyte sheet. […] The absorption enhancers were tested using two model drugs, sampatrilat and hydrochlorothiazide. In addition, a lactate dehydrogenase (LDH) assay was conducted after the permeation studies to evaluate the cytotoxicity of the absorption enhancers as well as to discover any violation of the integrity of the Caco-2 cells. LDH is a cytosolic enzyme that is not normally secreted outside the cell. However, it leaks into the culture medium upon damage to the cell membranes. In vitro release of LDH from cells provides an accurate measure of cell membrane integrity and cell viability. […] Wu, S.-J., et al, Pharmaceutical Res., 16(8): 1266-1272 (1999); Allen, M. J. et al., Promega Notes Magazine, Number 45, p. 7 (1994); or Ehrlich, M. et al, Current Protocols in Toxicology, John Wiley & Sons, New York (2000). LDH leakage into the apical compartment of the Caco-2 cell system was used to measure the effect, if any, of a given absorption enhancer on the viability of the Caco-2 cells.
Permeability coefficients are determined as previously reported by Yazdania et.el (Yazdanian M, Glynn, S I, Wright J L, et al. 1998. Correlating partitioning and Caco-2 permeability of structurally diverse small molecular weight compounds. Pharm Res 15:1490-1494). Briefly, drug solutions were prepared in HBSS at a known final concentration. For AP to BL experiments, the solution was placed on the apical side of the cells and samples were taken from basolateral side. In contrast, for BL to AP experiments, the solution was placed on the basolateral side of the cells and samples were taken from apical side. The samples are analyzed by an HPLC. Transport rates (J) are determined by plotting cumulative amounts of drug permeated as a function of time. Apparent permeability coefficients Pcaco-2, are determined according to the equation Pcaco-2=J/ACi where Ci is the initial concentration of the solution in donor chamber and A is the surface area of the filter.

Caco-2 cells = test: Lactate dehydrogenase (LDH) leakage assay after permeation studies; assay type: cell-based, human; details: relative to cells treated with Hank's balanced salt solution alone
Source text: as §1

Caco-2 cell line [2] = test: in vitro; assay type: in vitro ADME; details: human, Caco-2, 1 % w/v
Source text: as §1
(§2) Permeability coefficients are determined as previously reported by Yazdania et.el (Yazdanian M, Glynn, S I, Wright J L, et al. 1998. Correlating partitioning and Caco-2 permeability of structurally diverse small molecular weight compounds. Pharm Res 15:1490-1494). […] The samples are analyzed by an HPLC. Transport rates (J) are determined by plotting cumulative amounts of drug permeated as a function of time. Apparent permeability coefficients Pcaco-2, are determined according to the equation Pcaco-2=J/ACi where Ci is the initial concentration of the solution in donor chamber and A is the surface area of the filter. […]

Caco-2 cell line [3] = assay type: in vitro ADME; details: human, Caco-2, 1.8 mg/mL
Method: The original cell line integrity and the effect of excipients on the integrity of cell line were also tested by measuring the flux of ^14C-mannitol.

in vitro = in vitro ADME; details: human, Caco-2
Source text: as §1, §2

O=C1CCCCCCCCCCCCCCO1 [Cyclopentadecanolide, cyclopentadecanolide]
Potency in permeability enhancement (in words) (Caco-2 cell line [1]): low or no potency

CC1(C)[C@@H](O)CC[C@]2(C)[C@H]3C(=O)C=C4[C@@H]5C[C@@](C)(C(=O)O)CC[C@]5(C)CC[C@@]4(C)[C@]3(C)CC[C@@H]12 [Glycyrrehetinic acid, 18 β-glycyrrhetinic acid]
Potency in permeability enhancement (in words) (Caco-2 cell line [1]; human): low or no potency

CN(C)CC(=O)O [N,N-dimethylglycine]
Cytotoxicity (LDH assay) (Caco-2 cells): not cytotoxic
Effect on sampatrilat permeation across the Caco-2 cell line (in words) (Caco-2 cell line [2]): significantly increase

O=C(/C=C/C=C/c1ccc2c(c1)OCO2)N1CCCCC1 [Piperine, piperine]
Potency in permeability enhancement (in words) (Caco-2 cell line [1]; human): low or no potency

CS(=O)(=O)N[C@@H](CCCCN)C(=O)NC[C@H](CC1(C(=O)N[C@@H](Cc2ccc(O)cc2)C(=O)O)CCCC1)C(=O)O [Sampatrilat]
Permeability Coefficient, Mannitol (Caco-2 cell line [3]): 4.9 10E−7 cm/s
Papp A→B at 1.8 mg/mL (in vitro): 0.16 ×10⁻⁶ cm/s

O=C(O)CCCCCCCCC(=O)O [Sebacic acid, sebacic acid]
Cytotoxicity (LDH assay) (Caco-2 cells): not cytotoxic
Effect on sampatrilat permeation across the Caco-2 cell line (in words) (Caco-2 cell line [2]): significantly increase

O=C(O)C1=C[C@@H](O)[C@@H](O)[C@H](O)C1 [Shikimic acid, shikimic acid]
Cytotoxicity (LDH assay) (Caco-2 cells): not cytotoxic

Vitamin E TPGS [Vitamin E TGPS]
Potency in permeability enhancement (in words) (Caco-2 cell line [1]): low or no potency
